This is an account of results in patent US11602529B2, “Use of EZH2 inhibitors for treating cancer” (Epizyme, Inc., priority 2017, dated 2023).

Data set [1] is described as follows: Oral bioavailability. As to conditions: in vivo.
In data set [2] the test system is refractory B-cell non-Hodgkin lymphoma and advanced solid tumors, including epithelioid sarcoma. The settings on record: cited from earlier work.
Data set [3] has as its system epithelioid sarcoma. As to the kind of experiment: PD-L1, CD4 and CD8 staining of pre- and post-dose tissue biopsies of a subject with epithelioid sarcoma.
For data set [4], the system named is genetically defined cancer cells. As to the kind of experiment: Target methyl mark inhibition and killing of cancer cells in vitro. The format is cell-based.
For data set [5], the system named is soft tissue sarcoma. Nature of the data set: Post-treatment biopsy of patients with soft tissue sarcoma (Example 2).
Data set [6] in a line: In vivo efficacy in animal models.

SMILES strings stand for the structures.

For `CCN(c1cc(-c2ccc(CN3CCOCC3)cc2)cc(C(=O)NCc2c(C)cc(C)[nH]c2=O)c1C)C1CCOCC1` [Compound 44, tazemetostat], the oral bioavailability entry in data set [1] is reported as “orally bioavailable”. Also, the “PD-L1 expression in tumor sample” value in data set [2] (after 4 weeks of treatment) is listed as “modest expression of PD-L1 on immune cells”. For the same compound, the “histological assessment of on-treatment tumor specimen” value in data set [2] (not present at baseline nor at disease progression) was “strong immune infiltrate”. Further, the “clinical activity in patients” value in data set [2] (phase I clinical study) is “antitumor activity”. The “PD-L1 expression in tumor after treatment” value in data set [3] (800 mg twice daily orally, 25 weeks, post-dose vs pre-dose biopsy) was “upregulated PD-L1”. Besides, the “T-cell markers CD4 and CD8 in tumors with upregulated PD-L1” value in data set [3] (after treatment) is “positive for T-cell markers CD4 and CD8”. Also, the “CD8+ immune cells, share of overall cellularity” value in data set [3] (post-dose sample, 800 mg twice daily orally, 25 weeks (pre-dose about 5%)) is “about 30%”. Moreover, the “CD4+ histiocytoid cells, cellularity” value in data set [3] (post-dose sample, 800 mg twice daily orally, 25 weeks (pre-dose about 20%)) is “about 5%”. Besides, the “CD4+ cells, share of overall cellularity” value in data set [3] (post-dose sample, 800 mg twice daily orally, 25 weeks (pre-dose also about 2%)) is given as “about 2%”. The “effect of target methyl mark inhibition on cancer cells” value in data set [4] is on record as “killing of genetically defined cancer cells in vitro”. Further, the “cells present in the tumor showing expression of PD-L1” value in data set [5] (biopsy after 20 weeks of treatment) was “more than 50%”; in data set [5] (second patient, biopsy after 25 weeks of treatment), “more than 80%”. Besides, the “in vivo efficacy following inhibition of target methyl mark” value in data set [6] was “sustained in vivo efficacy”.
